The source of these data is patent US8481584B2, “1H-thieno[2,3-c]pyrazole derivatives useful as kinase inhibitors” (Nerviano Medical Sciences S.R.L., priority 2004, dated 2013).

Molecules are shown by their SMILES. Some results are limits rather than exact numbers.

The test has as its target T1, Aurora-2 (Homo sapiens, UniProt O14965).
T1 sequence (O14965 1-403): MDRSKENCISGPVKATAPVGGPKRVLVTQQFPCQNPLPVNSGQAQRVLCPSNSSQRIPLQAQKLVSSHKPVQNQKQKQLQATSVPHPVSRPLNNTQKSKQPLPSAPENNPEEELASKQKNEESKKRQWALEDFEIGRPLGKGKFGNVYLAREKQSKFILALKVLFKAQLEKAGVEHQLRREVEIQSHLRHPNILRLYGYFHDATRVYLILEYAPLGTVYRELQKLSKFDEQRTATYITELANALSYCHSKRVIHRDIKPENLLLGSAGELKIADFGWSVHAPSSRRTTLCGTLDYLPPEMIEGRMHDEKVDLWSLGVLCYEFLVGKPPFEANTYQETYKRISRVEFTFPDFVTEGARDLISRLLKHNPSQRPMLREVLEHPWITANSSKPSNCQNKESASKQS
The experiment in a line: Inhibition assay of Aurora-2 activity (SPA technology). Type of test: biochemical. The note with it: screened according to the methods of the pharmacology section; read-out: IC50 values for Aurora-2 inhibition. How it is done: The inhibiting activity and the potency of selected compounds is determined through a method of assay based on the use of the SPA technology (Amersham Pharmacia Biotech).
The assay consists of the transfer of radioactivity labelled phosphate moiety by the kinase to a biotinylated substrate. The resulting 33P-labelled biotinylated product is allowed to bind to streptavidin-coated SPA beads (biotin capacity 130 pmol/mg), and light emitted was measured in a scintillation counter.
Inhibition Assay of Aurora-2 Activity
After 60 minutes at room temperature incubation, reaction was stopped and biotinylated peptide captured by adding 100 μl of bead suspension.
Stratification: 100 μl of CsCl2 5 M were added to each well and let stand 4 hour before radioactivity was counted in the Top-Count instrument.
Experimental data were analyzed by the computer program GraphPad Prizm using the four parameter logistic equation: y=bottom+(top−bottom)/(1+10^((logIC50−x)*slope)) where x is the logarithm of the inhibitor concentration, y is the response; y starts at bottom and goes to top with a sigmoid shape.
Consider `CC[C@@H](NC(=O)c1cc2c(NC(=O)c3ccc(N4CCOCC4)cc3)n[nH]c2s1)c1ccccc1` [Compound 4, 3-[(4-morpholin-4-ylbenzoyl)amino]-N-[(1R)-1-phenylpropyl]-1H-thieno[2,3-c]pyrazole-5-carboxamide], for which the IC50 (commonly the concentration that gives 50% inhibition) is under 20 nM.

As to `O=C(Nc1n[nH]c2sc(C(=O)N[C@H](CN3CCOCC3)c3ccccc3)cc12)c1ccc(N2CCOCC2)cc1` [Compound 6, 3-[(4-morpholin-4-ylbenzoyl)amino]-N-[(1S)-2-morpholin-4-yl-1-phenylethyl]-1H-thieno[2,3-c]pyrazole-5-carboxamide], the IC50 was under 20 nM.

For `O=C(Nc1n[nH]c2sc(C(=O)NC3(c4ccccc4)CC3)cc12)c1ccc(F)cc1` [Compound 7, 3-[(4-fluorobenzoyl)amino]-N-(1-phenylcyclopropyl)-1H-thieno[2,3-c]pyrazole-5-carboxamide], the IC50 was under 20 nM.

Turning to `CC(C)(NC(=O)c1cc2c(NC(=O)c3ccc(F)cc3)n[nH]c2s1)c1ccccc1` [Compound 8, 3-[(4-fluorobenzoyl)amino]-N-(1-methyl-1-phenylethyl)-1H-thieno[2,3-c]pyrazole-5-carboxamide], the IC50 was under 20 nM. Take `CC[C@@H](NC(=O)c1cc2c(NC(=O)c3ccc(F)cc3)n[nH]c2s1)c1ccccc1` [Compound 9, 3-[(4-fluorobenzoyl)amino]-N-[(1R)-1-phenylpropyl]-1H-thieno[2,3-c]pyrazole-5-carboxamide]: the IC50 was under 20 nM. Turning to `C[C@@H](NC(=O)c1cc2c(NC(=O)c3ccc(F)cc3)n[nH]c2s1)c1ccc(F)cc1` [Compound 11, 3-[(4-fluorobenzoyl)amino]-N-[(1R)-1-(4-fluorophenyl)ethyl]-1H-thieno[2,3-c]pyrazole-5-carboxamide], the IC50 was under 20 nM.

For `O=C(Nc1n[nH]c2sc(C(=O)N[C@H](CN3CCOCC3)c3ccccc3)cc12)c1cccs1` [Compound 15, N-[(1S)-2-morpholin-4-yl-1-phenylethyl]-3-[(thien-2-ylcarbonyl)amino]-1H-thieno[2,3-c]pyrazole-5-carboxamide], the IC50 is under 20 nM. Turning to `C[C@@H](NC(=O)c1cc2c(NC(=O)c3cccs3)n[nH]c2s1)c1ccc(F)cc1` [Compound 17, N-[(1R)-1-(4-fluorophenyl)ethyl]-3-[(thien-2-ylcarbonyl)amino]-1H-thieno[2,3-c]pyrazole-5-carboxamide], the IC50 was under 20 nM. As for `O=C(Nc1n[nH]c2sc(C(=O)NC3(c4ccccc4)CC3)cc12)c1cccs1` [Compound 18, N-(1-phenylcyclopropyl)-3-[(thien-2-ylcarbonyl)amino]-1H-thieno[2,3-c]pyrazole-5-carboxamide], the IC50 was under 20 nM. In the case of `O=C(Nc1n[nH]c2sc(C(=O)N[C@H](CN3CCCC3)c3ccccc3)cc12)c1cccs1` [Compound 19, N-[(1S)-1-phenyl-2-pyrrolidin-1-ylethyl]-3-[(thien-2-ylcarbonyl)amino]-1H-thieno[2,3-c]pyrazole-5-carboxamide], the IC50 was under 20 nM. The same measure for `CC[C@@H](NC(=O)c1cc2c(NC(=O)c3cccs3)n[nH]c2s1)c1ccccc1` [Compound 20, N-[(1R)-1-phenylpropyl]-3-[(thien-2-ylcarbonyl)amino]-1H-thieno[2,3-c]pyrazole-5-carboxamide]: under 20 nM; for `Cn1cccc1C(=O)Nc1n[nH]c2sc(C(=O)NC(C)(C)c3ccccc3)cc12` [Compound 21, N-(1-methyl-1-phenylethyl)-3-{[(1-methyl-1H-pyrrol-2-yl)carbonyl]amino}-1H-thieno[2,3-c]pyrazole-5-carboxamide]: under 20 nM. The same measure for `Cn1cccc1C(=O)Nc1n[nH]c2sc(C(=O)NC3(c4ccccc4)CC3)cc12` [Compound 22, 3-{[(1-methyl-1H-pyrrol-2-yl)carbonyl]amino}-N-(1-phenylcyclopropyl)-1H-thieno[2,3-c]pyrazole-5-carboxamide]: under 20 nM; for `O=C(Nc1n[nH]c2sc(C(=O)NC3(c4ccccc4)CC3)cc12)c1ccco1` [Compound 23, 3-(2-furoylamino)-N-(1-phenylcyclopropyl)-1H-thieno[2,3-c]pyrazole-5-carboxamide]: under 20 nM. For `CC(C)(NC(=O)c1cc2c(NC(=O)c3ccco3)n[nH]c2s1)c1ccccc1` [Compound 24, 3-(2-furoylamino)-N-(1-methyl-1-phenylethyl)-1H-thieno[2,3-c]pyrazole-5-carboxamide] the value was under 20 nM; for `CN1CCC(Oc2ccc(C(=O)Nc3n[nH]c4sc(C(=O)NC(C)(C)c5ccccc5)cc34)cc2)CC1` [Compound 25, N-(1-methyl-1-phenylethyl)-3-({4-[(1-methylpiperidin-4-yl)oxy]benzoyl}amino)-1H-thieno[2,3-c]pyrazole-5-carboxamide], under 20 nM. `CN1CCN(Cc2ccc(C(=O)Nc3n[nH]c4sc(C(=O)NC(C)(C)c5ccccc5)cc34)cc2)CC1` [Compound 27, N-(1-methyl-1-phenylethyl)-3-({4-[(4-methylpiperazin-1-yl)methyl]benzoyl}amino)-1H-thieno[2,3-c]pyrazole-5-carboxamide]: the IC50 was under 20 nM. The same measure for `CC[C@@H](NC(=O)c1cc2c(NC(=O)c3ccc(N4CCN(C)CC4)cc3)n[nH]c2s1)c1ccccc1` [Compound 30, 3-{[4-(4-methylpiperazin-1-yl)benzoyl]amino}-N-[(1R)-1-phenylpropyl]-1H-thieno[2,3-c]pyrazole-5-carboxamide]: under 20 nM; for `CN1CCN(c2ccc(C(=O)Nc3n[nH]c4sc(C(=O)N[C@H](CN5CCOCC5)c5ccccc5)cc34)cc2)CC1` [Compound 31, 3-{[4-(4-methylpiperazin-1-yl)benzoyl]amino}-N-[(1S)-2-morpholin-4-yl-1-phenylethyl]-1H-thieno[2,3-c]pyrazole-5-carboxamide]: under 20 nM; for `CN1CCN(c2ccc(C(=O)Nc3n[nH]c4sc(C(=O)N[C@H](CN5CCCC5)c5ccccc5)cc34)cc2)CC1` [Compound 32, 3-{[4-(4-methylpiperazin-1-yl)benzoyl]amino}-N-[(1S)-1-phenyl-2-pyrrolidin-1-ylethyl]-1H-thieno[2,3-c]pyrazole-5-carboxamide]: under 20 nM. For `CCC(CC)(NC(=O)c1cc2c(NC(=O)c3ccc(N4CCN(C)CC4)cc3)n[nH]c2s1)c1ccccc1` [Compound 33, N-(1-ethyl-1-phenylpropyl)-3-{[4-(4-methylpiperazin-1-yl)benzoyl]amino}-1H-thieno[2,3-c]pyrazole-5-carboxamide], the IC50 is under 20 nM. Regarding `CN1CCN(c2ccc(C(=O)Nc3n[nH]c4sc(C(=O)NC5(c6ccccc6)CCCC5)cc34)cc2)CC1` [Compound 34, 3-{[4-(4-methylpiperazin-1-yl)benzoyl]amino}-N-(1-phenylcyclopentyl)-1H-thieno[2,3-c]pyrazole-5-carboxamide], the IC50 was under 20 nM.

Turning to `CN1CCN(c2ccc(C(=O)Nc3n[nH]c4sc(C(=O)NC5(c6ccccc6)CC5)cc34)cc2)CC1` [Compound 35, 3-{[4-(4-methylpiperazin-1-yl)benzoyl]amino}-N-(1-phenylcyclopropyl)-1H-thieno[2,3-c]pyrazole-5-carboxamide], the IC50 is under 20 nM. For `CC(C)(NC(=O)c1cc2c(NC(=O)c3ccc(CN4CCCC4)cc3)n[nH]c2s1)c1ccccc1` [Compound 37, 3-(4-Pyrrolidin-1-ylmethyl-benzoylamino)-1H-thieno[2,3-c]pyrazole-5-carboxylic acid (1-methyl-1-phenyl-ethyl)-amide] the value was under 20 nM.
